In ChEMBL document CHEMBL5625249, “Optimization and antifungal activity of quinoline derivatives linked to chalcone moiety combined with FLC against Candida albicans” (Eur J Med Chem, 2023):
Activity calls are given as the source filed them. The rule behind the calls is not given here.

Tests used:
Candida albicans [1] = experiment: In vivo antifungal activity against FLC-resistant Candida albicans ATCC 14053 infected in Balb/c mouse assessed as reduction in liver fungal load at 7.5 to 15 mg/kg, ig measured after 6 days in presence of fluconazole; assay type: functional, organism-based; conditions: dose 7.5-15 mg/kg, time 6.0 day
Candida albicans [2] = experiment: Synergistic antifungal activity against clinical FLC-resistant Candida albicans 381 assessed as fractional inhibitory concentration index measured after 24 hrs by microdilution method; assay type: functional
Candida albicans [3] = experiment: In vivo antifungal activity against FLC-resistant Candida albicans ATCC 14053 infected in Balb/c mouse assessed as survival rate at 15 mg/kg, ig measured daily for 6 days (Rvb < 20%); assay type: functional; conditions: ATCC 14053, po, 144 h, time 6 day
Candida albicans [4] = experiment: Synergistic antifungal activity against FLC-resistant Candida albicans ATCC 14053 cultured in SD +10% FBS liquid medium assessed as inhibition of hyphal formation at 1 ug/ml measured after 4 to 8 hrs in presence of fluconazole and dibutyryl-cAMP by inverted microscopy; assay type: functional, organism-based; conditions: dose 1.0 µg/ml, time 4-8 hrs
Candida albicans [5] = experiment: Synergistic antifungal activity against FLC-resistant Candida albicans ATCC 14053 assessed as inhibition of hyphal formation by measuring down regulation of CYR1 gene expression at 1 ug/ml measured after 16 to 18 hrs in presence of fluconazole by qRT-PCR analysis; assay type: functional, organism-based; conditions: dose 1.0 µg/ml, time 16-18 hrs
Candida albicans [6] = experiment: In vivo antifungal activity against FLC-resistant Candida albicans ATCC 14053 infected in Balb/c mouse assessed as reduction in renal injury at 15 mg/kg, ig measured after 6 days by H and E staining based histopathological analysis; assay type: functional, organism-based; conditions: time 6.0 day
[7] = Toxicity in Balb/c mouse infected with FLC-resistant Candida albicans ATCC 14053 assessed as weight loss at 7.5 to 15 mg/kg, ig measured daily for 6 days in presence of fluconazole; assay type: organism-based; conditions: in vivo, po, 144 h, dose 7.5-15 mg/kg, time 6 day
[8] = Toxicity in Balb/c mouse assessed as death at 7.5 to 15 mg/kg, ig measured daily for 6 days in presence of fluconazole; assay type: organism-based; conditions: in vivo, po, 144 h, dose 7.5-15 mg/kg, time 6 day
Candida albicans [9] = experiment: Antifungal activity against FLC-resistant Candida albicans ATCC 14053 cultured in SD +10% FBS liquid medium assessed as inhibition of hyphal formation at 1 ug/ml measured after 2 hrs by inverted microscopy; assay type: functional, organism-based; conditions: dose 1.0 µg/ml
Candida albicans [10] = experiment: Synergistic antifungal activity against Clinical FLC-resistant Candida albicans 23 measured after 24 hrs in presence of fluconazole by microdilution method; assay type: functional
[11] = Toxicity in Balb/c mouse assessed as death at 15 mg/kg, ig measured daily for 6 days; assay type: organism-based; conditions: in vivo, po, 144 h, time 6 day
Candida albicans [12] = experiment: Synergistic antifungal activity against clinical FLC-resistant Candida albicans 808 measured after 24 hrs by microdilution method; assay type: functional
Candida albicans [13] = experiment: Synergistic antifungal activity against clinical FLC-resistant Candida albicans 602 assessed as fractional inhibitory concentration index measured after 24 hrs by microdilution method; assay type: functional
Candida albicans [14] = experiment: Induction of reactive oxygen species production in FLC-resistant Candida albicans ATCC 14053 at 1 ug/mL measured after 16 to 18 hrs in presence of fluconazole by DCFH-DA staining based fluorescence assay; assay type: functional, organism-based; conditions: dose 1.0 µg/ml, time 16-18 hrs
Candida albicans [15] = experiment: Antifungal activity against clinical FLC-resistant Candida albicans 550 measured after 24 hrs by microdilution method; assay type: functional
Candida albicans [16] = experiment: In vivo antifungal activity against FLC-resistant Candida albicans ATCC 14053 infected in Balb/c mouse assessed as reduction in lung fungal load at 15 mg/kg, ig measured after 6 days; assay type: functional, organism-based; conditions: time 6.0 day
Candida albicans [17] = experiment: Synergistic antifungal activity against clinical FLC-resistant Candida albicans 550 assessed as fractional inhibitory concentration index measured after 24 hrs by microdilution method; assay type: functional
Candida albicans [18] = experiment: Synergistic antifungal activity against clinical FLC-resistant Candida albicans 800 assessed as fractional inhibitory concentration index measured after 24 hrs by microdilution method; assay type: functional
Candida albicans [19] = experiment: Antifungal activity against FLC-resistant Candida albicans ATCC 10231 measured after 24 hrs by microdilution method; assay type: functional
Candida albicans [20] = experiment: Synergistic antifungal activity against FLC-resistant Candida albicans ATCC 14053 measured after 24 hrs by microdilution method; assay type: functional
Candida albicans [21] = experiment: Synergistic antifungal activity against clinical FLC-resistant Candida albicans 800 measured after 24 hrs by microdilution method; assay type: functional
Candida albicans [22] = experiment: In vivo antifungal activity against FLC-resistant Candida albicans ATCC 14053 infected in Balb/c mouse assessed as reduction in infiltration of inflammatory cells at 7.5 to 15 mg/kg, ig measured after 6 days in presence of fluconazole by H and E staining based histopathological analysis; assay type: functional, organism-based; conditions: dose 7.5-15 mg/kg, time 6.0 day

In the case of CN1CCN(c2nc3ccccc3cc2/C=C/C(=O)c2ccc(N3CCN(Cc4ccc(C(F)(F)F)cc4)CC3)cc2)CC1, the Activity (Candida albicans [1]) is reported as “inactive”, the “fractional inhibitory concentration index (FICI)” value (Candida albicans [2]) is reported as 0.03 and the survival at 15 mg/kg (Candida albicans [3]) is reported as 30%. The inhibition (Candida albicans [4]) was “inactive”, the inhibition (Candida albicans [5]) was “Active” and the Activity (Candida albicans [6]) was “inactive”. For the same molecule, the Activity [7] was “Non-Toxic”, the Activity [8] was “Non-Toxic” and the inhibition (Candida albicans [9]) was “inactive”. For the same molecule, the MIC80 (Candida albicans [10]) was 1.2 µg/mL, the Activity [11] was “Non-Toxic” and the MIC80 (Candida albicans [12]) was 0.38 µg/mL. The “fractional inhibitory concentration index (FICI)” value (Candida albicans [13]) was 0.14, the Activity (Candida albicans [14]) was “Active” and the MIC80 (Candida albicans [15]) was greater than 40 µg/mL. The Activity (Candida albicans [16]) was “inactive”, the “fractional inhibitory concentration index (FICI)” value (Candida albicans [17]) was 0.15 and the “fractional inhibitory concentration index (FICI)” value (Candida albicans [18]) was 0.03. For the same molecule, the MIC80 (Candida albicans [19]) was greater than 40 µg/mL, the MIC80 (Candida albicans [20]) was 0.87 µg/mL and the MIC80 (Candida albicans [21]) was 1.28 µg/mL. For the same molecule, the Activity (Candida albicans [22]) was “Active”.
